How the values were obtained:
[1] = Absorbance of the dyes (absorption maximum, extinction coefficient); assay type: physicochemical
[2] = Fluorescence emission maximum of the dyes; assay type: physicochemical

SMILES	Abs. max ([1]; in water) [nm]	Abs. max ([1]; in water/1× PBS) [nm]	Em. Max ([2]; in water/1× PBS) [nm]	also measured
CC1(C)C(/C=C/C2=CC(=C/C=C3/N(CCCS(=O)(=O)O)c4ccc(S(=O)(=O)O)cc4C3(C)C)/CC(C(=O)NCCCCCC(=O)O)(C(=O)NCCS(=O)(=O)O)C2)=[N+](CCCS(=O)(=O)[O-])c2ccc(S(=O)(=O)O)cc21 (stereo not drawn) [Compound 1f]	–	751	771	–
CCN1/C(=C/C=C2C=C(/C=C/C3=[N+](CC)c4ccc5c(S(=O)(=O)[O-])cc(S(=O)(=O)O)cc5c4C3(C)C)CC(C(=O)NCCCCCC(=O)O)(C(=O)NCCS(=O)(=O)O)C/2)C(C)(C)c2c1ccc1c(S(=O)(=O)O)cc(S(=O)(=O)O)cc21 (stereo not drawn) [Compound 4m]	775	–	–	Abs. max ([1]; MeOH): 780 nm; Em. Max ([2]; water): 795 nm
CCOC(=O)C1(C(=O)O)CC(/C=C/C2=[N+](CCCS(=O)(=O)[O-])c3ccc(S(=O)(=O)O)cc3C2(C)C)=CC(=C/C=C2/N(CCCS(=O)(=O)O)c3ccc(S(=O)(=O)O)cc3C2(C)C)/C1 (stereo not drawn) [Compound 1b]	–	–	–	% absorption of the dye at 278 nm with respect to its abs. at λmax, 750 nm [1]: 4%; Abs ([1]; 1x PBS): 749 nm; ε (extinction coefficient of the dye) ([1]; 1x PBS, in M-1 cm-1 (unit assumed)): 240,000; Em ([2]; 1x PBS): 771 nm

Now from value to compound, other results behind:

Abs. max ([1]; in water) [nm]	Abs. max ([1]; in water/1× PBS) [nm]	Em. Max ([2]; in water/1× PBS) [nm]	SMILES	also measured
749	–	–	CCOC(=O)C1(C(=O)NCCS(=O)(=O)O)CC(/C=C/C2=[N+](CCCS(=O)(=O)[O-])c3ccc(S(=O)(=O)O)cc3C2(C)C)=CC(=C/C=C2/N(CCCS(=O)(=O)O)c3ccc(S(=O)(=O)O)cc3C2(C)C)/C1 (stereo not drawn) [Compound 1c]	–
–	751	771	CC1(C)C(/C=C/C2=CC(=C/C=C3/N(CCCS(=O)(=O)O)c4ccc(S(=O)(=O)O)cc4C3(C)C)/CC(C(=O)O)(C(=O)NCCS(=O)(=O)O)C2)=[N+](CCCS(=O)(=O)[O-])c2ccc(S(=O)(=O)O)cc21 (stereo not drawn) [Compound 1d]	–
